Measured values taken from patent US6538023B1, “Therapeutic uses of green tea polyphenols for sickle cell disease” (priority 2000, dated 2003).
Entries after “also recorded” stand apart in the source; their conditions may differ.

Test system: sickle red blood cells (K-Cl cotransport)
Test: Inhibition of dense cell formation triggered by 500 mM urea (K-Cl cotransport) in sickle red blood cells
Assay type: cell-based, human
Conditions: 37 centigrade, 3 hours; for inhibition of dense cell formation: hematocrit 2%; for inhibition of dense cell formation (FIG. 4): 0.6 mM, oxygenated and deoxygenated conditions
Description: The reaction medium consists of: 150 mM NaCl, 1 mM MgSO4, 10 mM HEPES buffer and 10 mM glucose. The osmolarity of the medium was adjusted to 290 mOsm/kg using a freezing point osmometer and the pH was adjusted to 7.4
For in vitro tests, blood was obtained from adult sickle cell patients (using acid-citrate-dextrose as an anticoagulant) whose hemoglobin F content is less than 1% and whose content of irreversibly sickled cells is less than 10%. The blood could be used for 2 days as long as the air-space of the container was equilibrated with 95% air/5% CO2 and the container was gently tumbled (1 to 2 rpm) at 4° C.
Four ml of the density gradient solution (density=1.104) was poured into each of 15 ml COREX centrifuge tubes (Corning Glass), and the tubes were spun at 10,000 rpm for 5 min, by which a density gradient was automatically formed. Then, 100 μl of blood was overlayered on top of each pre-formed density gradient, and the tubes were span for 10 minutes at 2,500 rpm using a low speed centrifuge with a swing rotor.
When red blood cells of normal subject with normal hemoglobin were spun, they all stayed near a top portion of the gradient (FIG. 2A). […] Then, the red blood cells in the top layer of each tubes, which consists of “non-dense cells”, were collected, washed with the reaction medium, resuspended in the same medium, and used for the experiments.
As described above, tubes each containing 4 ml of the density gradient solution with the density of 1.104 were spun at 12,000 rpm for 5 min to form gradient density. K-Cl cotransport experiments were conducted by incubating a suspension of “non-dense cells” with the hematocrit value of 2% at 37 centigrade for 3 hours. Then, 50 μl of each non-dense cell suspension was overlayered on top of the pre-formed density gradient, and the tubes were span for 10 minutes at 2,500 rpm using a low speed centrifuge with a swing rotor. If 500 mM urea was added before the incubation, dense cells were formed due to the stimulation of K-Cl cotransport as shown in FIG. 2D.
When the bottom layer was formed, red cells in both the top and bottom layers were separately collected, washed and hemolyzed in 5 mM phosphate buffer (pH 7.4) containing 0.5 mM EDTA and 0.5% of a detergent, BRIJ-30. From the hemoglobin content as determined by spectrophotometry, we determined the percentage of dense cell formation (Ohnishi, S. T. British J. Haematology 55:665-671, 1983).
FIG. 3. Dense cells can be formed by incubating non-dense cells at 37 centigrade for 3 hours in the presence of 500 mM urea, which triggers K-Cl cotransport and concomitant dehydration. […] The formation can be inhibited by the addition of inhibitors before starting the incubation. […] However, neither 2 mM vitamin C nor 2 mM vitamin E inhibited the dense cell formation.
FIG. 4. The inhibition of dense cell formation triggered with 500 mM urea at 37 centigrade for 3 hours by different green tea polyphenols. Open columns are for the oxygenated condition and filled columns for the deoxygenated condition. Abbreviations. CH: (+)-Catechin; EC: (−)-Epicatechin; ECg: (−)-Epicatechin gallate; EGC: (−)-Epigallocatechin; and EGCg: (−)-Epigallocatechin gallate.

O=C1O[C@H]([C@@H](O)CO)C(O)=C1O [Vitamin C, reference compound]
inhibition of dense cell formation (2 mM): no inhibitory effect

Oc1cc(O)c2c(c1)O[C@H](c1cc(O)c(O)c(O)c1)[C@H](O)C2 [EGC, (−)-Epigallocatechin]
inhibition of dense cell formation (FIG. 4): significant effect

C=C1[C@@H](O)[C@@H]2O[C@]3(CC[C@H](/C=C/[C@@H](C)[C@@H]4CC(C)=C[C@@]5(O[C@H](C[C@@](C)(O)C(=O)O)CC[C@H]5O)O4)O3)CC[C@H]2O[C@@H]1[C@@H](O)C[C@H](C)[C@H]1O[C@@]2(CCCCO2)CC[C@H]1C [okadaic acid, reference compound]
inhibition of dense cell formation (100 nM): inhibited the dense cell formation completely

O=C(O[C@@H]1Cc2c(O)cc(O)cc2O[C@@H]1c1ccc(O)c(O)c1)c1cc(O)c(O)c(O)c1 [ECg, (−)-Epicatechin gallate]
inhibition of dense cell formation (FIG. 4): significant effect

Oc1cc(O)c2c(c1)O[C@H](c1ccc(O)c(O)c1)[C@@H](O)C2 [CH, (+)-Catechin]
inhibition of dense cell formation (FIG. 4): no effects

COC[C@@H]([C@H](O)[C@H](O)C(=O)NCC[C@H](C)c1nc(/C=C/C[C@@H]2O[C@]3(C[C@@H](O)[C@@H]2C)O[C@H]([C@H](C[C@H](O)[C@H](C)[C@H](O)[C@H](C)/C=C(C)/C(C)=C/C=C/C(C)=C\C#N)OC)[C@H](OP(=O)(O)O)C3(C)C)co1)N(C)C [calyculin A, reference compound]
inhibition of dense cell formation (25 nM): inhibited the dense cell formation completely

Vitamin E [reference compound]
inhibition of dense cell formation (2 mM): no inhibitory effect

(−)-Epigallocatechin gallate [EGCg]
inhibition of dense cell formation (FIG. 4): significant effect; also recorded: maximum inhibitory effect | inhibition of dense cell formation (0.2-0.6 mM): effectively inhibited dense cell formation
